Data as given in patent US12465582B2, “(S)-2-amino-6-((3-aminopropyl)amino)hexanoic acid (APL) for use in the treatment of non-alcoholic steatohepatitis (NASH), liver inflammation, hepatocellular ballooning, liver fibrosis and steatosis” (Temple University—Of The Commonwealth System Of Higher …, priority 2020, dated 2025).

Columns and labels:
[1] = test system: C57BL/6J mice fed high fat/high fructose diet (HFD); test: NAFLD Activity Score (NAS) in HFD DIO mouse model of NASH; format: in vivo; settings: 130 days
Description: C57BL/6J mice were maintained in cages (5 mice per cage) and had free access to standard rodent chow (Cat #5053, obtained from Labdiet, Saint Louis, MO) and water (filtered and packed using a Hydrapak system) for 5 days until the start of the experiment. The animals were then randomly assigned to three groups (n=5 for each group receiving different diets and treatments as shown in Table B for 130 days. Each treatment was administered p.o.b.i.d. The APL dosage was 200 mg/kg body weight. “HFD” is high fat/high fructose diet, as described in Example 1 “Chow” refers to standard rodent chow, as described in Example 1. Animals were fed ad libitum.
At the conclusion of the test period, the animals were humanely euthanized, and the livers were removed for histological analysis. Liver samples in formalin were allowed to fix for 48 hours, and processed into FFPE blocks after fixations. Slides were stained with hematoxylin and eosin (H&E). FIG. 6A is the representation of multiple images of hematoxylin & eosin (H&E) staining of liver sections.
The liver samples were evaluated for liver fat (steatosis), inflammation, and hypertrophy in accordance the NAS scoring system. The NAS scoring is depicted in FIG. 6B. The NAS score for mice in the HFD/vehicle-treated mice is increased in all the pathological parameters, when compared with the CHOW/vehicle-treated mice: macrovesicular steatosis, microvesicular steatosis, hepatic hypertrophy and inflammatory foci. […] Thus, APL attenuates hepatic steatosis, inflammation and hypertrophy in the liver, each pathognomic of liver damage and NASH.

[2] = test system: 4-hydroxynonenal (4-HNE) in liver of Zucker (fa/fa) obese rats; test: Hepatic 4-HNE immunofluorescence (protein carbonyls) in rat NASH model; format: in vivo
Excerpt: Zucker (fa/fa) obese rats and Zucker (Fa/fa) lean rats (7-week old male animals obtained from Charles Rivers Laboratories, Wilmington, MA, USA) were maintained in individual cages (1 rat per cage to encourage sedentary activity) and had free access to standard rodent chow (Cat #5053 obtained from Labdiet, Saint Louis, MO) and water for (filtered and packed using a Hydrapak system) for 7 days until the start of the experiment. Zucker (fa/fa) obese rats were randomly assigned to two groups: 1) vehicle p.o.b.i.d. (oral administration, twice a day) for 78 days; and 2) 100 milligram per kilogram (mg/kg) body weight APL (p.o.b.i.d.) for 78 days. Zucker (Fa/fa) lean rats served as control. The APL dosage was 100 mg/kg/day. Animals were fed ad libitum. The animals were humanely euthanized, and the livers were removed for histological analysis. Liver samples in formalin were allowed to fix for 48 hours, and processed into FFPE blocks after fixations. Slides were stained with hematoxylin and eosin (H&E) and Mason trichrome staining.
Liver samples from the Zucker rats in Example 4 were stained with an anti-4HNE antibody from Abcam (catalog #ab46545) for immunofluorescent analysis of the presence of 4-HNE. The data are depicted in FIG. 9. FIG. 9A are representative images of 4-HNE immunofluorescence liver sections from Zucker (Fa/fa) lean rats, Zucker (fa/fa) obese rats administered vehicle, and Zucker (fa/fa) obese rats administered vehicle administered APL. FIG. 9B is a plot of the 4HNE immunofluorescence intensity per tissue area, and FIG. 9C is a plot of total tissue area. […] Cytotoxic lipid by products such as 4-HNE are known to be elevated in human NASH livers as compared to healthy livers. See e.g., Serviddio et al., Uncoupling protein-2 (UCP2) induces mitochondrial proton leak and increases susceptibility of non-alcoholic steatohepatitis (NASH) liver to ischaemia-reperfusion injury. Gut. 2008 July; 57(7):957-65. doi: 10.1136/gut.2007.147496. Epub 2008 Feb. 28. The data implies that 4-HNE plays a crucial role in the pathogenesis of NASH.

[3] = test system: 4-hydroxynonenal (4-HNE) in liver of C57BL/6J mice fed HFD; test: Hepatic 4-HNE immunofluorescence (protein carbonyls) in DIO mouse NASH model; format: in vivo; settings: 130 days
Description: Liver samples from C57BL/6J mice fed chow and treated with vehicle, C57BL/6J mice fed HFD and treated with vehicle, and C57BL/6J mice fed HFD and treated with APL, as described in Example 1, were prepared and stained with an anti-4HNE antibody from Abcam (catalog #ab46545) for immunofluorescent analysis of the presence of 4-HNE. The APL dosage, administration frequency, and duration of treatment were as described in Example 1 (APL dosage administered to each animal was 200 milligrams per kilogram of body weight divided in two dosages per day, via oral gavage; treatment duration of 130 days; animals fed ad libitum). The data are depicted in FIG. 10. FIG. 10A are representative images of 4-HNE immunofluorescence liver sections from C57BL/6J mice fed chow and treated with vehicle, C57BL/6J mice fed HFD and treated with either vehicle or APL (TB-019) at 20× or 63× magnification. FIG. 10B is a plot of the 4-HNE immunofluorescence intensity per tissue area.

[4] = test system: C57BL/6J mice fed AMLN diet changed to HFD; test: Liver function serum biomarkers in AMLN diet mouse model of NASH; format: in vivo; settings: 16 weeks (week 50-66)
Description: C57BL/6 mice were maintained in cages and had free access to standard rodent chow (Cat #5053, obtained from Labdiet, Saint Louis, MO) and water. C57BL/6J mice were fed either CHOW (negative control) or amylin liver NASH (AMLN) diet (58% high fat, 25% carbohydrate, 2% cholesterol) for twenty (20) weeks. Beginning at twenty (20) weeks, animals fed AMLN diet were changed to HFD. At fifty (50) weeks, animals were treated twice daily (b.i.d.) with oral administration (p.o.) of either vehicle (positive control) or APL (treated).

[5] = See WO 2018/049019 and US 2019/0192462; cited from earlier work
[6] = Zucker obese rats, 100 mg/kg APL p.o. b.i.d., 78 days, ***p<0.001

For `NCCCNCCCC[C@H](N)C(=O)O` [APL, (S)-2-amino-6-((3-aminopropyl)amino)hexanoic acid], the “NAS parameters: macrovesicular steatosis, microvesicular steatosis, hepatic hypertrophy, inflammatory foci (FIG. 6B)” value ([1]; APL 200 mg/kg p.o. b.i.d., vs HFD vehicle, ***p<0.001) was “statistically significant amelioration”, the “lobular inflammation score, treated group vs negative control (FIG. 7B)” value ([1]; APL 200 mg/kg, ****p<0.0001) was “significant statistical difference” and the “NAS component scores: steatosis, lobular inflammation, hepatic ballooning (FIG. 7B), treated vs positive control” value ([1]; APL 200 mg/kg/day divided into 2 doses, ****p<0.0001) was “significantly reduces”. For the same molecule, the “hepatic 4-HNE intensity / total tissue area, treated vs negative control” value ([2]; Zucker obese rats treated with APL vs lean control) was “No significant statistical difference”, the “hepatic 4-HNE immunofluorescence intensity per tissue area, treated vs obese vehicle” value [2, 6] was “significantly reduces” and the “total liver tissue area (FIG. 9C), treated vs obese vehicle” value [2, 6] was “maintains the total liver tissue area”. The “protein carbonyls in liver (4-HNE immunofluorescence intensity per tissue area), treated vs HFD vehicle” value ([3]; APL 200 mg/kg/day in two doses, oral gavage, ***p<0.001) was “reduced”, the “4-HNE immunofluorescence intensity per tissue area, treated vs negative control (chow vehicle)” value ([3]; APL 200 mg/kg/day) was “No statistical difference” and the “serum ALP vs positive control” value ([4]; APL 50 mg/kg/day p.o. b.i.d.) was “significant reduction”. The “serum ALT vs positive control” value ([4]; APL 50 mg/kg/day p.o. b.i.d.) was “significant reduction”, the “serum AST vs positive control” value ([4]; APL 50 mg/kg/day p.o. b.i.d.) was “significant reduction” and the “serum nonesterified fatty acids (NEFA) vs positive control” value ([4]; APL 50 mg/kg/day p.o. b.i.d.) was “significant reduction”. The “serum triglycerides vs positive control” value ([4]; APL 50 mg/kg/day p.o. b.i.d.) was “significant reduction”, the “serum cholesterol vs positive control” value ([4]; APL 200 mg/kg/day p.o. b.i.d.) was “significant reduction” and the “affinity for 4-HNE” value [5] was “high affinity”.
